From paper PMC5740381 (Antimicrobial Agents and Chemotherapy, 2017)
Like-named read-outs stand apart in the source and are kept apart here.

Tests used:
[1] = test system: HCV subgenomic stable replicon GT6a; test: Stable HCV replicon luciferase assay in Huh-7 cells; assay type: cell-based, Hepatitis C virus; conditions: read-out: Mean EC50 ± SD
Source text: (§1) . Five of these nine cell lines have been described previously, including those transfected with genotypes 1a H77, 1b Con1, 3a, 4a, and 6a ([28]). The other four cell lines were established by transfecting cells with a nonchimeric genotype 2a JFH-1 replicon (GenBank accession number AB047639), two genotype 2a JFH-1 chimeric replicons containing either a genotype 2b NS3 protease domain (N-terminal 251 amino acids) or a sequence encoding full-length NS3 through the first 39 amino acids of NS5B from genotype 5a (strain SA13), and one chimeric replicon with a genotype 1b Con1 backbone containing full-length NS3 and NS4A sequences from genotype 6e. The genotype 2b and 6e NS3 sequences were each synthetically constructed based on a consensus sequence derived from the alignment of 15 genotype 2b and 4 genotype 6e sequences, respectively. All replicon constructs were bicistronic subgenomic replicons similar to those described by Bartenschlager and coworkers, and the replicon cell lines were generated by introducing these constructs into cells of an Huh-7 human hepatoma-derived cell line ([50]). The inhibitory effect of the PIs on HCV replication in replicon cells was determined in Dulbecco's modified Eagle medium containing 5% fetal bovine serum with or without 40% human plasma (Bioreclamation, Westbury, NY). The EC50s were determined using nonlinear regression curve fitting as described previously ([33]).

[2] = test system: HCV subgenomic stable replicon GT4a; test: as above; assay type: cell-based, Hepatitis C virus; conditions: read-out: Mean EC50 ± SD
Source text: as §1

[3] = test system: HCV subgenomic stable replicon GT2b; test: as above; assay type: cell-based; conditions: Hepatitis C virus, 0% human plasma, read-out: Mean EC50 ± SD
Source text: (§2) Five of these nine cell lines have been described previously, including those transfected with genotypes 1a H77, 1b Con1, 3a, 4a, and 6a ([28]). […] The genotype 2b and 6e NS3 sequences were each synthetically constructed based on a consensus sequence derived from the alignment of 15 genotype 2b and 4 genotype 6e sequences, respectively. All replicon constructs were bicistronic subgenomic replicons similar to those described by Bartenschlager and coworkers, and the replicon cell lines were generated by introducing these constructs into cells of an Huh-7 human hepatoma-derived cell line ([50]). The inhibitory effect of the PIs on HCV replication in replicon cells was determined in Dulbecco's modified Eagle medium containing 5% fetal bovine serum with or without 40% human plasma (Bioreclamation, Westbury, NY). The EC50s were determined using nonlinear regression curve fitting as described previously ([33]).

HCV genotype 2b replicon = test: Transient replicon assay with engineered substitutions; assay type: cell-based, Hepatitis C virus
Description: (§3) Mutagenesis was performed using a Change-IT multiple-mutation site-directed mutagenesis kit (USB, Cleveland, OH) or by cloning a synthesized DNA fragment encoding the amino acid substitution(s). The genotype 1a and 1b replicon shuttle vectors used for the introduction of the substitutions of interest in the NS3, NS5A, or NS5B gene for transient-transfection assays have been described previously ([28], [33]). The replicon shuttle vectors used for the introduction of substitutions in NS3 genes from other genotypes were similar to the stable replicon cell line constructs described above, except for the absence of the neo gene. After mutagenesis, the plasmids were linearized and RNA was transcribed and then used to transfect Huh-7 cells. Inhibition of HCV replication by the HCV inhibitors was measured by luciferase assay, as described above. Replication efficiency was calculated as a percentage of wild-type replication, as described previously ([28]).

HCV genotype 4d replicon = test: as above; assay type: cell-based, Hepatitis C virus
Description: as §3

HCV genotype 4a replicon = test: as above; assay type: cell-based, Hepatitis C virus
Description: as §3

HCV genotype 6a replicon = test: as above; assay type: cell-based, Hepatitis C virus
Description: as §3

HCV genotype 3a replicon = test: as above; assay type: cell-based, Hepatitis C virus
Description: as §3

[4] = test system: HCV subgenomic stable replicon GT3a; test: microbe, parasite or virus in culture; assay type: cell-based, Hepatitis C virus; conditions: read-out: Mean EC50 ± SD
Source text: as §2

HCV genotype 2a replicon = test: Transient replicon assay with engineered substitutions; assay type: cell-based, Hepatitis C virus; conditions: read-out: Mean EC50 ± SD
Description: as §3

HCV genotype 5a replicon = test: as above; assay type: cell-based, Hepatitis C virus; conditions: 5a wild type, transient transfection; read-out: Mean EC50 ± SD
Description: as §3

HCV genotype 1a replicon = test: as above; assay type: cell-based, Hepatitis C virus; conditions: read-out: Mean EC50 ± SD
Description: as §3

HCV genotype 1b replicon = test: as above; assay type: cell-based, Hepatitis C virus; conditions: read-out: Mean EC50 ± SD
Description: as §3

[5] = Hepatitis C virus, Huh-7, 0% human plasma

## CC(C)(C)[C@@H]1NC(=O)O[C@@H]2CCC[C@H]2OC/C=C/C(F)(F)c2nc3ccccc3nc2O[C@@H]2C[C@@H](C(=O)N[C@]3(C(=O)NS(=O)(=O)C4(C)CC4)C[C@H]3C(F)F)N(C2)C1=O [Glecaprevir, (3aR,7S,10S,12R,21E,24aR)-7-tert-butyl-N-[(1R,2R)-2-(difluoromethyl)-1-{[(1-methylcyclopropyl)sulfonyl]carbamoyl}cyclopropyl]-20,20-difluoro-5,8-dioxo-2,3,3a,5,6,7,8,11,12,20,23,24a-dodecahydro-1H,10H-9,12-methanocyclopenta[18,19][1,10,17,3,6]trioxadiazacyclononadecino[11,12-b]quinoxaline-10-carboxamide]
[1]; [5]
  EC50: 0.86 ± 0.11 nM
[2]; [5]
  EC50: 2.8 ± 0.41 nM
[3]
  EC50: 4.6 ± 1.2 nM
HCV genotype 2b replicon; Hepatitis C virus, read-out: Mean EC50 ± SD, 2b NS3 A156T
  EC50: 460 ± 172 nM
HCV genotype 2b replicon; Hepatitis C virus, read-out: Mean EC50 ± SD, 2b NS3 A156V
  EC50: 4510 nM
HCV genotype 2b replicon; Hepatitis C virus, read-out: Mean EC50 ± SD, 2b NS3 D168A
  EC50: 3.9 ± 1 nM
HCV genotype 2b replicon; Hepatitis C virus, read-out: Mean EC50 ± SD, 2b NS3 D168E
  EC50: 6.6 ± 1.8 nM
HCV genotype 2b replicon; Hepatitis C virus, read-out: Mean EC50 ± SD, 2b NS3 D168V
  EC50: 9.1 ± 1.2 nM
HCV genotype 2b replicon; Hepatitis C virus, read-out: Mean EC50 ± SD, 2b wild type, transient transfection
  EC50: 3.1 nM
HCV genotype 4d replicon; Hepatitis C virus, 96 h, read-out: Mean EC50 ± SD, 4d wild type, transient transfection
  EC50: 0.15 ± 0.04 nM
HCV genotype 4a replicon; Hepatitis C virus, read-out: Mean EC50 ± SD, 4a NS3 A156T
  EC50: 962 ± 374 nM
HCV genotype 4a replicon; Hepatitis C virus, read-out: Mean EC50 ± SD, 4a NS3 A156V
  EC50: 2080 nM
HCV genotype 4a replicon; Hepatitis C virus, read-out: Mean EC50 ± SD, 4a NS3 D168H
  EC50: 15 ± 6.1 nM
HCV genotype 4a replicon; Hepatitis C virus, read-out: Mean EC50 ± SD, 4a NS3 D168V
  EC50: 6.5 ± 3 nM
HCV genotype 4a replicon; Hepatitis C virus, read-out: Mean EC50 ± SD, 4a NS3 R155C
  EC50: 1.7 ± 0.47 nM
HCV genotype 4a replicon; Hepatitis C virus, read-out: Mean EC50 ± SD, 4a wild type, transient transfection
  EC50: 0.67 nM
HCV genotype 6a replicon; Hepatitis C virus, read-out: Mean EC50 ± SD, 6a NS3 D168A
  EC50: 12 ± 5.8 nM
HCV genotype 6a replicon; Hepatitis C virus, read-out: Mean EC50 ± SD, 6a NS3 D168H
  EC50: 22 ± 5.7 nM
HCV genotype 6a replicon; Hepatitis C virus, read-out: Mean EC50 ± SD, 6a NS3 D168V
  EC50: 5.8 ± 2.2 nM
HCV genotype 6a replicon; Hepatitis C virus, read-out: Mean EC50 ± SD, 6a wild type, transient transfection
  EC50: 0.15 nM
HCV genotype 3a replicon; Hepatitis C virus, read-out: Mean EC50 ± SD, 3a NS3 A156G
  EC50: 909 ± 349 nM
HCV genotype 3a replicon; Hepatitis C virus, read-out: Mean EC50 ± SD, 3a NS3 Q168R
  EC50: 30 ± 10 nM
HCV genotype 3a replicon; Hepatitis C virus, read-out: Mean EC50 ± SD, 3a wild type, transient transfection
  EC50: 0.55 nM
[4]; [5]
  EC50: 1.9 ± 0.62 nM

## C=C[C@@H]1C[C@]1(NC(=O)[C@@H]1C[C@@H]2CN1C(=O)[C@H](C(C)(C)C)NC(=O)O[C@@H]1C[C@H]1CCCCCc1nc3ccc(OC)cc3nc1O2)C(=O)NS(=O)(=O)C1CC1 [Grazoprevir]
[1]; 0% human plasma
  EC50: 0.89 ± 0.32 nM
[2]; 0% human plasma
  EC50: 1.2 ± 0.31 nM
HCV genotype 2b replicon; 2b NS3 A156T, read-out: Mean EC50 ± SD
  EC50: 1560 nM
HCV genotype 2b replicon; 2b NS3 A156V, read-out: Mean EC50 ± SD
  EC50: 2890 nM
HCV genotype 2b replicon; 2b NS3 D168A, read-out: Mean EC50 ± SD
  EC50: 347 ± 113 nM
HCV genotype 2b replicon; 2b NS3 D168E, read-out: Mean EC50 ± SD
  EC50: 35 ± 6 nM
HCV genotype 2b replicon; 2b NS3 D168V, read-out: Mean EC50 ± SD
  EC50: 88 ± 19 nM
HCV genotype 2b replicon; 2b wild type, transient transfection, read-out: Mean EC50 ± SD
  EC50: 6.1 ± 1.3 nM
HCV genotype 4d replicon; 4d NS3 D168V, read-out: Mean EC50 ± SD
  EC50: 2.5 ± 0.08 nM
HCV genotype 4d replicon; 4d wild type, transient transfection, read-out: Mean EC50 ± SD
  EC50: 0.18 ± 0.01 nM
HCV genotype 4a replicon; 4a NS3 A156T, read-out: Mean EC50 ± SD
  EC50: 296 ± 22 nM
HCV genotype 4a replicon; 4a NS3 A156V, read-out: Mean EC50 ± SD
  EC50: 169 ± 27 nM
HCV genotype 4a replicon; 4a NS3 D168H, read-out: Mean EC50 ± SD
  EC50: 25 ± 6.3 nM
HCV genotype 4a replicon; 4a NS3 D168V, read-out: Mean EC50 ± SD
  EC50: 13 ± 1.1 nM
HCV genotype 4a replicon; 4a NS3 R155C, read-out: Mean EC50 ± SD
  EC50: 2 ± 0.27 nM
HCV genotype 4a replicon; 4a wild type, transient transfection, read-out: Mean EC50 ± SD
  EC50: 0.28 ± 0.04 nM
HCV genotype 2a replicon; 2a NS3 A156T
  EC50: 1150 nM
HCV genotype 2a replicon; 2a NS3 A156V
  EC50: 1960 nM
HCV genotype 2a replicon; 2a NS3 D168A
  EC50: 139 ± 9.4 nM
HCV genotype 2a replicon; 2a NS3 D168E
  EC50: 62 ± 10 nM
HCV genotype 2a replicon; 2a NS3 D168V
  EC50: 24 ± 0.94 nM
HCV genotype 2a replicon; 2a wild type, transient transfection
  EC50: 10.5 ± 1.4 nM
HCV genotype 6a replicon; 6a NS3 D168A, read-out: Mean EC50 ± SD
  EC50: 103 ± 34 nM
HCV genotype 6a replicon; 6a NS3 D168H, read-out: Mean EC50 ± SD
  EC50: 45 ± 4.1 nM
HCV genotype 6a replicon; 6a NS3 D168V, read-out: Mean EC50 ± SD
  EC50: 24 ± 1.2 nM
HCV genotype 6a replicon; 6a wild type, transient transfection, read-out: Mean EC50 ± SD
  EC50: 0.1 ± 0.02 nM
HCV genotype 5a replicon
  EC50: 0.06 ± 0.02 nM
HCV genotype 1a replicon; 1a NS3 A156T
  EC50: 92 ± 6 nM
HCV genotype 1a replicon; 1a NS3 D168E
  EC50: 4.6 ± 0.66 nM
HCV genotype 1a replicon; 1a NS3 D168V
  EC50: 30 ± 13 nM
HCV genotype 1a replicon; 1a NS3 F43L
  EC50: 0.19 ± 0.05 nM
HCV genotype 1a replicon; 1a NS3 Q80K
  EC50: 0.25 ± 0.09 nM
HCV genotype 1a replicon; 1a NS3 R155K
  EC50: 0.59 ± 0.19 nM
HCV genotype 1a replicon; 1a NS3 V36M
  EC50: 0.27 ± 0.06 nM
HCV genotype 1a replicon; 1a NS3 V55I
  EC50: 0.1 ± 0.02 nM
HCV genotype 1a replicon; 1a NS3 Y56H
  EC50: 2.2 ± 0.73 nM
HCV genotype 1a replicon; 1a wild type, transient transfection
  EC50: 0.14 ± 0.06 nM
HCV genotype 1b replicon; 1b NS3 A156T
  EC50: 39 ± 4.3 nM
HCV genotype 1b replicon; 1b NS3 A156V
  EC50: 68 ± 8.2 nM
HCV genotype 1b replicon; 1b NS3 D168A
  EC50: 8.5 ± 0.37 nM
HCV genotype 1b replicon; 1b NS3 D168E
  EC50: 0.78 ± 0.05 nM
HCV genotype 1b replicon; 1b NS3 D168V
  EC50: 4.1 ± 0.11 nM
HCV genotype 1b replicon; 1b wild type, transient transfection
  EC50: 0.19 ± 0.05 nM
HCV genotype 3a replicon; 3a NS3 A156G, read-out: Mean EC50 ± SD
  EC50: 614 ± 148 nM
HCV genotype 3a replicon; 3a NS3 Q168R, read-out: Mean EC50 ± SD
  EC50: 165 ± 46 nM
HCV genotype 3a replicon; 3a wild type, transient transfection, read-out: Mean EC50 ± SD
  EC50: 47 ± 14 nM
[4]; 0% human plasma
  EC50: 83 ± 18 nM
